From ChEMBL document CHEMBL1127792, “Total synthesis and biological properties of novel antineoplastic (chloromethyl)furanoindolines: an asymmetric hydroboration mediated synthesis of the alkylation subunits” (J Med Chem, 1994)
Values after ≈ are worked out from the molar mass of the structure shown.

How the values were obtained:
Nucleic Acid [1] = assay: Relative concentration of compound for alkylation of w794 DNA is detected at incubation condition of 4 degrees C for 24 hr; Range is 0.01-0.006; type: functional
T222 [2] = assay: Concentration for 50% growth inhibition relative to untreated control in the human lung epidermoid carcinoma (T222) cell line; Not active; type: functional, cell-based
T222 [3] = assay: Concentration for 50% growth inhibition relative to untreated control in the human lung epidermoid carcinoma (T222) cell line; type: functional, cell-based
Mus musculus [4] = assay: Acute toxicity was measured as ratio of number of mice that died to the 5 mice in test group on a dose of 0.2 mg/Kg; type: organism-based; conditions: in vivo
Nucleic Acid [5] = assay: Relative concentration of compound for alkylation of w794 DNA detected at incubation condition of 4 degrees C for 24 hr; Range is 1.0-0.2; type: functional
Mus musculus [6] = assay: Percent inhibition against [3H]leucine uptake at a dose of 0.2 mg/Kg in a mouse bearing a T222 tumor burden; type: functional
Mus musculus [7] = assay: Acute toxicity was measured as ratio of number of mice that died to the 5 mice in test group on a dose of 0.1 mg/Kg; type: organism-based; conditions: in vivo
Mus musculus [8] = assay: Acute toxicity was measured as ratio of number of mice that died to the 5 mice in test group on a dose of 0.4 mg/Kg; type: organism-based; conditions: in vivo
Mus musculus [9] = assay: Acute toxicity was measured as ratio of number of mice that died to the 5 mice in the test group on a dose of 0.05 mg/Kg; type: organism-based; conditions: in vivo
Mus musculus [10] = assay: Percent inhibition against [3H]-Leucine uptake at a dose of 0.1 mg/Kg in a mouse bearing a T222 tumor burden; type: functional
Mus musculus [11] = assay: Percent inhibition against [3H]leucine uptake at a dose of 0.05 mg/Kg in mouse bearing a T222 tumor burden; type: functional

For `Cc1coc2c(O)cc3c(c12)[C@@H](CCl)CN3C(=O)c1cc2cc(NC(=O)c3cc4ccccc4[nH]3)ccc2[nH]1`, the Efficiency (Nucleic Acid [1]) was 0.006.

For `Cc1coc2c(O)cc3c(c12)C(C)(C)CN3C(=O)c1cc2cc(NC(=O)c3cc4ccccc4[nH]3)ccc2[nH]1`, the IC50 (T222 [2]) was “Not Active”.

`Cc1coc2c(O)cc3c(c12)[C@H](CCl)CN3C(=O)c1cc2cc(NC(=O)c3cc4ccccc4s3)ccc2s1` was tested, and the IC50 (T222 [3]) was 0.2 ng/mL (≈ 0.349 nM).

Compound `CC[C@]1(O)C[C@@H]2CN(CCc3c([nH]c4ccccc34)[C@@](C(=O)OC)(c3cc4c(cc3OC)N(C)[C@H]3[C@@](O)(C(=O)NN)[C@H](O)[C@]5(CC)C=CCN6CC[C@]43[C@@H]65)C2)C1` [DESACETYLVINBLASTINEHYDRAZIDE] has an IC50 (T222 [3]) of 3 ng/mL (≈ 3.9 nM).

Work on `Cc1coc2c(O)cc3c(c12)[C@H](CCl)CN3C(=O)c1cc2cc(NC(=O)c3cc4ccccc4s3)ccc2[nH]1` yielded an IC50 (T222 [3]) of 0.2 ng/mL (≈ 0.36 nM).

`Cc1coc2c(O)cc3c(c12)C(CCl)CN3C(=O)c1cc2cc(NC(=O)c3cc4ccccc4[nH]3)ccc2[nH]1` (single isomer, unassigned) showed a Toxicity (Mus musculus [4]) of 1, an Efficiency (Nucleic Acid [5]) of 0.2 and an inhibition in vivo at 0.2 mg/kg (Mus musculus [6]) of 85%. The Toxicity (Mus musculus [7]) was 0, the Toxicity (Mus musculus [8]) was 5 and the Toxicity (Mus musculus [9]) was 0. The inhibition in vivo at 0.1 mg/kg (Mus musculus [10]) was 73% and the inhibition in vivo at 0.05 mg/kg (Mus musculus [11]) was 68%.
